Data from US10176292B2, “STING crystals and modulators” (MEMORIAL SLOAN-KETTERING CANCER CENTER, priority 2013, dated 2019).

Legend:
hSTING^R232 = target: T1, hSTING^R232 (Homo sapiens, UniProt Q86WV6, H232R); assay: IFN-β luciferase reporter, HEK293T cells with hSTING (hSTING^R232); assay type: cell-based; conditions: DMXAA added to medium, 12 h
T1 construct: Full-length hSTING (wt and substitutions) and mSTING (wt) constructs were used for this cellular assay; expressed in transfected cells; host or cells: HEK293T
T1 sequence (Q86WV6 whole entry H232R): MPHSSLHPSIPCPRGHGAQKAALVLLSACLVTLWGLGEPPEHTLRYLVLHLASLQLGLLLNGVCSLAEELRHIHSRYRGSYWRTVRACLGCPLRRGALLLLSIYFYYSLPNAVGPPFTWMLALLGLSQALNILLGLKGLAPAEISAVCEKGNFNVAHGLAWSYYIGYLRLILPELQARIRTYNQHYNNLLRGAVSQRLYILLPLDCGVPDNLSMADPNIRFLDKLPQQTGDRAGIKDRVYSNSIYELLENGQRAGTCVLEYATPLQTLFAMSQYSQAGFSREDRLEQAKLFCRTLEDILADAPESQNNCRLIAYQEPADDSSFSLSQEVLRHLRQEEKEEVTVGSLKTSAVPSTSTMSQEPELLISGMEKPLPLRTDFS
Description: (§1) Luciferase expression was determined after 12 h. […] Cells were lysed in Passive Lysis Buffer.
(§2) Luciferase assays for DMXAA experiments were performed as described above. Briefly, 3×10^4 293T cells were reverse-transfected with STING constructs (5 ng per 96-well) and reporter constructs (50 ng pIFNβ-Gluc, 10 ng pLenti-EF1-Fluc for normalization, 35 ng pMAX-empty as stuffer, delivered with TransIT-LT1, MirusBio, Madison Wis.). […] 12 hours after stimulation with STING-ligands, cells were resuspended in passive lysis buffer and luciferase activity was determined using the respective substrates Coelenterazine and D-Luciferin (PJK, Kleinblittersdorf, Germany). Gaussia Luciferase values were then normalized to constitutive Firefly Luciferase values (resulting in Relative Light Units, RLU).

hSTING^H232/A162 = hSTING^H232/A162 (Homo sapiens, UniProt Q86WV6, S162A); assay: ITC binding, hSTING^H232 mutant S162A; conditions: DMXAA; Protein: 0.08 mM; Ligands: 0.8 mM; 180 mM NaCl, pH 7.5; 25° C.
Sequence of hSTING^H232/A162 (Q86WV6 140-379 S162A): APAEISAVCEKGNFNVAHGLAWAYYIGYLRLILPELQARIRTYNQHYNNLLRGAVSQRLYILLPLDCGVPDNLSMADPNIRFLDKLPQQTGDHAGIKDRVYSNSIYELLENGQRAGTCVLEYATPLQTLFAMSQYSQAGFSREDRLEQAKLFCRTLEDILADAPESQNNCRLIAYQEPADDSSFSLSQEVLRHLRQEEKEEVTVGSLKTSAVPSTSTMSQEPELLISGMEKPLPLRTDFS

hSTING I235L = target: T2, hSTING I235L (Homo sapiens, UniProt Q86WV6, H232R/I235L); assay: IFN-β luciferase reporter, hSTING I235L; assay type: cell-based; conditions: 0.18 mM DMXAA, 12 hours
T2 construct: Full-length hSTING (wt and substitutions) and mSTING (wt) constructs were used for this cellular assay; expressed in transfected cells; host or cells: 293T
T2 sequence (Q86WV6 whole entry H232R/I235L): as the sequence (Q86WV6 whole entry H232R) above, with I235L counted along it
Description: as §2

hSTING^G230I [1] = target: T3, hSTING^G230I (Homo sapiens, UniProt Q86WV6, G230I/H232R); assay: Real-time PCR in STING^Gt/Gt BMDCs transduced with hSTING^G230I; assay type: cell-based; conditions: 50 μg/ml DMXAA, 3 hours
T3 sequence (Q86WV6 whole entry G230I/H232R): as the sequence (Q86WV6 whole entry H232R) above, with G230I counted along it
Description: (§3) The protocol for generation of bone marrow-derived dendritic cells was described before (Dai et al., 2014). […] BMDCs (1×10^6 cells/well) were infected with retroviruses expressing hSTING (wt and various substitution mutants).
(§4) hSTING cDNAs were cloned into pQCXIP-HA vector. In vitro packaging system was used to generate retroviruses according to protocol (Clontech). BMDCs (1×10^6 cells/well) were seeded into 6-well plates and infected with retroviruses. […] CXCL10 protein level was determined by ELISA.

hSTING^S162A/Q266I = hSTING^S162A/Q266I (Homo sapiens, UniProt Q86WV6, H232R/Q266I/S162A); assay: Real-time PCR in STING^Gt/Gt BMDCs transduced with hSTING^S162A/Q266I; assay type: cell-based; design: expressed in transfected cells; host or cells: bone marrow-derived dendritic cells of STING^Gt/Gt mice, retroviral transduction (pQCXIP-HA); conditions: 50 μg/ml DMXAA, 3 hours
Sequence of hSTING^S162A/Q266I (Q86WV6 whole entry S162A/H232R/Q266I): as the sequence (Q86WV6 whole entry H232R) above, with S162A, Q266I counted along it
Description: as §3, §4

hSTING^Q266I = target: T4, hSTING^Q266I (Homo sapiens, UniProt Q86WV6, H232R/Q266I); assay: IFN-β luciferase reporter, hSTING Q266I; assay type: cell-based; conditions: 0.18 mM DMXAA, 12 hours
T4 construct: Full-length hSTING (wt and substitutions) and mSTING (wt) constructs were used for this cellular assay; expressed in transfected cells; host or cells: 293T
T4 sequence (Q86WV6 whole entry H232R/Q266I): as the sequence (Q86WV6 whole entry H232R) above, with Q266I counted along it
Description: as §2

hSTING^group4 = assay: ITC binding, hSTING^group4; conditions: isolated group4 substitutions
hSTING^S162A/G230I/Q266I = hSTING^S162A/G230I/Q266I (Homo sapiens, UniProt Q86WV6, G230I/H232R/Q266I/S162A); assay: Real-time PCR in STING^Gt/Gt BMDCs transduced with hSTING^S162A/G230I/Q266I; assay type: cell-based; conditions: 50 μg/ml DMXAA, 3 hours
Sequence of hSTING^S162A/G230I/Q266I (Q86WV6 whole entry S162A/G230I/H232R/Q266I): as the sequence (Q86WV6 whole entry H232R) above, with S162A, G230I, Q266I counted along it
Description: as §3, §4

[2] = system: hSTING S162A (hSTING^H232 and hSTING^R232 background); assay type: cell-based, human; conditions: DMXAA in medium, 12 h; hSTING^H232 and hSTING^R232 background
hSTING^group134 = assay: IFN-β luciferase reporter, hSTING^group134; assay type: cell-based, human; conditions: 0.18 mM DMXAA; compared with hSTING^group1234
Description: as §2
Full-length hSTING (wt and substitutions) and mSTING (wt) constructs were used for this cellular assay, and were expressed at moderate levels allowing ligand-dependent activation of IFN-β promoter.

hSTING S162I = target: T5, hSTING S162I (Homo sapiens, UniProt Q86WV6, S162I); assay: IFN-β luciferase reporter, hSTING S162I; assay type: cell-based; conditions: 75 μg/ml DMXAA (FIG. 14A)
T5 construct: Full-length hSTING (wt and substitutions) and mSTING (wt) constructs were used for this cellular assay; expressed in transfected cells; host or cells: HEK293T
T5 sequence (Q86WV6 whole entry S162I): as the sequence (Q86WV6 whole entry H232R) above, with S162I, R232H counted along it
Description: as §1, §2

wt hSTING = target: T6, wt hSTING (Homo sapiens, UniProt Q86WV6, H232R); assay: Real-time PCR in STING^Gt/Gt BMDCs transduced with wt hSTING; assay type: cell-based; conditions: 50 μg/ml DMXAA, 3 hours
T6 construct: expressed in transfected cells; host or cells: bone marrow-derived dendritic cells of STING^Gt/Gt mice, retroviral transduction (pQCXIP-HA)
T6 sequence (Q86WV6 whole entry H232R): as the sequence (Q86WV6 whole entry H232R) above
Description: as §3, §4

hSTING^S162A = target: T7, hSTING^S162A (Homo sapiens, UniProt Q86WV6, H232R/S162A); assay: Real-time PCR in STING^Gt/Gt BMDCs transduced with hSTING^S162A; assay type: cell-based; conditions: 50 μg/ml DMXAA, 3 hours
T7 construct: expressed in transfected cells; host or cells: bone marrow-derived dendritic cells of STING^Gt/Gt mice, retroviral transduction (pQCXIP-HA)
T7 sequence (Q86WV6 whole entry S162A/H232R): as the sequence (Q86WV6 whole entry H232R) above, with S162A counted along it
Description: as §3, §4

hSTING Q266L = target: T8, hSTING Q266L (Homo sapiens, UniProt Q86WV6, H232R/Q266L); assay: IFN-β luciferase reporter, hSTING Q266L; assay type: cell-based; conditions: 0.18 mM DMXAA, 12 hours
T8 construct: Full-length hSTING (wt and substitutions) and mSTING (wt) constructs were used for this cellular assay; expressed in transfected cells; host or cells: 293T
T8 sequence (Q86WV6 whole entry H232R/Q266L): as the sequence (Q86WV6 whole entry H232R) above, with Q266L counted along it
Description: as §2

hSTING^G230I [3] = target: T3, hSTING^G230I; assay: IFN-β luciferase reporter, hSTING^G230I; assay type: cell-based; design: Full-length hSTING (wt and substitutions) and mSTING (wt) constructs were used for this cellular assay; expressed in transfected cells; host or cells: 293T; conditions: ascending concentrations of DMXAA, 12 hours
Description: as §2

hSTING^R232/A162 = hSTING^R232/A162 (Homo sapiens, UniProt Q86WV6, H232R/S162A); assay: ITC binding, hSTING^R232/A162; conditions: Protein: 0.08 mM; Ligands: 0.8 mM; 30 mM HEPES, 180 mM NaCl, pH 7.5; 25° C.
Sequence of hSTING^R232/A162 (Q86WV6 140-379 S162A/H232R): as the sequence (Q86WV6 140-379 S162A) above, with H93R counted along it

hSTING^H232/V162 = hSTING^H232/V162 (Homo sapiens, UniProt Q86WV6, S162V); assay: ITC binding, hSTING^H232/V162; conditions: Protein: 0.08 mM; Ligands: 0.8 mM; 180 mM NaCl, pH 7.5; 25° C.
Sequence of hSTING^H232/V162 (Q86WV6 140-379 S162V): as the sequence (Q86WV6 140-379 S162A) above, with A23V counted along it

SMILES: Cc1ccc2c(=O)c3cccc(CC(=O)O)c3oc2c1C [DMXAA, 5,6-dimethylxanthenone-4-acetic acid]
- IFN-β luciferase reporter response to DMXAA (hSTING^R232): did not
- TΔS (hSTING^H232/A162): +7.99 Kcal/mol
- ΔH (hSTING^H232/A162): +0.44 Kcal/mol
- DMXAA-mediated IFN-β induction (hSTING I235L): no effects
- increases in IFN-β mRNA levels (hSTING^G230I [1]): 2.6 fold
- increases in IFN-β mRNA levels (hSTING^S162A/Q266I): 3.1 fold
- DMXAA-mediated IFN-β induction (hSTING^Q266I): conferred DMXAA sensitivity at a level similar to that observed for the S162A substitution
- binding to DMXAA (ITC) (hSTING^group4): no detectable binding
- increases in IFN-β mRNA levels (hSTING^S162A/G230I/Q266I): 4.2 fold
- up-regulation of CXCL10, CCL5 and IL-6 mRNAs (hSTING^S162A/G230I/Q266I): strongest induction among the four mutants
- IFN luciferase reporter response to DMXAA [2]: enabled recognition of DMXAA
- IFN-β luciferase reporter response to DMXAA (hSTING^group134): strongly diminished DMXAA activation
- IFN induction by DMXAA (hSTING S162I): not observed
- up-regulation of IFN-β mRNA after DMXAA treatment (wt hSTING): did not induce the up-regulation
- increases in IFN-β mRNA levels (hSTING^S162A): 2.2 fold
- DMXAA-mediated IFN-β induction (hSTING Q266L): less pronounced gain
- IFN-β induction activity (luciferase), DMXAA (hSTING^G230I [3]): almost identical IFN-β induction as hSTING^group2
- TΔS (hSTING^R232/A162): +8.65 Kcal/mol
- ΔG (hSTING^R232/A162): -8.29 kcal/mol
- ΔH (hSTING^R232/A162): +0.36 Kcal/mol
- TΔS (hSTING^H232/V162): +7.84 Kcal/mol
- ΔG (hSTING^H232/V162): -7.45 kcal/mol
- ΔH (hSTING^H232/V162): +0.39 Kcal/mol
